Results reported in patent publication US20050123906A1, “Protein modulation” (priority 2003, published 2005).
Non-standard residues stand in square brackets, D forms with d. Residues, ends and D or L forms follow the SMILES beside them. Nle = CCCC[C@H](N)C(=O)O

How the values were obtained:
Vif = assay: Steady-state levels of Vif with proteasome inhibition (immuno-blot); format: cell-based, HIV-1; conditions: 293T cells, presence or absence of CFP-APO, 100 μM ALLN 12 hours
Protocol: 293T cells were maintained in a humidified incubator (5% CO2) at 37° C. in Dulbecco's modified Eagle's medium (DMEM; Invitrogen) supplemented with 10% fetal bovine serum, 100 units/ml penicillin and 100 μg/ml streptomycin (Invitrogen). Qiagen-purified plasmid DNA (Qiagen, Valencia, Calif.) was transfected into 293T cells using Lipofectaminem 2000 lipofection agent (Invitrogen). For Western blot and immunoprecipitation experiments, 293T cells were transfected in either 6 or 12 well plates when the cells were ˜60% confluent. The amount of vector used and the molar ratio of vector for co-transfection experiments are described in the Results and figure legends. When necessary, final DNA amounts were made equal by the addition of pGEM (Promega). For live imaging and immuno-localization, 293T cells were seeded into poly-d-lysine coated 35 mm glass bottom culture dishes and transfected when the cells were ˜50% confluent. […]
(§1) The level of Vif-mediated depletion of APOBEC3G was further determined over a broad range of Vif (pNL-A1):APOBEC3G (pCFP-APO) vector ratios ranging from 1:1 to 1:0.0625, where 1 refers to 130 fmoles of vector. The level of depletion was determined by comparing the steady-state levels of CFP-APO when co-expressed with Vif to the equivalent Δvif control (pNL-A1Δvif). […]

CFP-APO = assay: Vif-mediated depletion of CFP-APO with proteasome inhibition (immuno-blot, confocal microscopy); format: cell-based, human; conditions: for CFP-APO levels in the absence of Vif: 293T cells, pNL-A1Δvif
Protocol: 293T cells were maintained in a humidified incubator (5% CO2) at 37° C. in Dulbecco's modified Eagle's medium (DMEM; Invitrogen) supplemented with 10% fetal bovine serum, 100 units/ml penicillin and 100 μg/ml streptomycin (Invitrogen). Qiagen-purified plasmid DNA (Qiagen, Valencia, Calif.) was transfected into 293T cells using Lipofectaminem 2000 lipofection agent (Invitrogen). For Western blot and immunoprecipitation experiments, 293T cells were transfected in either 6 or 12 well plates when the cells were ˜60% confluent. The amount of vector used and the molar ratio of vector for co-transfection experiments are described in the Results and figure legends. When necessary, final DNA amounts were made equal by the addition of pGEM (Promega). For live imaging and immuno-localization, 293T cells were seeded into poly-d-lysine coated 35 mm glass bottom culture dishes and transfected when the cells were ˜50% confluent. For proteasome inhibition studies, culture media containing 100 μM of N-Acetyl-Leu-Leu-Nle-CHO (ALLN, Calbiochem, La Jolla, Calif.) or the equivalent volume of DMSO was added to cells 12 hours prior to harvesting or imaging 36 hours post-transfection.
as §1
To prepare total protein lysates, each well of a 6- or 12-well plate was washed once in phosphate buffered saline (PBS, Invitrogen) and then lysed in either 400 or 200 μl, respectively, of Mammalian Protein Extraction Reagent (M-PER, Pierce, Rockford, Ill.) supplemented with 0.5% (v/v) Triton-X 100 (Pierce), 150 mM NaCl, 5 mM EDTA, and a 1/100 (v/v) dilution of a protease inhibitor cocktail for mammalian tissue for 30 minutes at 4° C. with gentle rotation. […] Protein concentration was determined by Dc protein assay (Bio-Rad, Hercules, Calif.). […]

Compound: CCCC[C@@H](C=O)NC(=O)[C@H](CC(C)C)NC(=O)[C@H](CC(C)C)NC(C)=O [ALLN, N-Acetyl-Leu-Leu-Nle-CHO] (Ac-Leu-Leu-[Nle]-aldehyde)
- Steady-state levels of Vif (Vif): elevated the steady-state levels of Vif
- CFP-APO levels by confocal microscopy (CFP-APO; 293T cells expressing Vif, pNL-A1:pCFP-APO 1:0.25, proteasome inhibition): elevated
- CFP-APO levels in the absence of Vif (CFP-APO; all ratios except 1:0.0625, 100 μM ALLN 12 hours): not significantly affected
- CFP-APO levels in the absence of Vif (CFP-APO; lowest pCFP-APO input (1:0.0625 ratio), 100 μM ALLN 12 hours): modest reduction in expression
